# Reference: US8129371B2, “Thienopyrimidine and pyrazolopyrimidine compounds and their use as mTOR kinase and PI3 kinase inhibitors” (Wyeth LLC, priority 2007, dated 2012)
# Tests used:
# PI3K [1] = target: T1, PI3K (Homo sapiens, UniProt P48736); assay: Fluorescence polarization assay for PI3K; type: biochemical; details: PI3 Kinase γ isoform, fluorescence polarization; read-out: PI3 Kinase γ IC50
# T1 construct: PI3 Kinase γ IC50; other: PI3 Kinase γ; other: PI3 Kinase γ isoform, fluorescence polarization
# T1 sequence (P48736 whole entry, canonical isoform): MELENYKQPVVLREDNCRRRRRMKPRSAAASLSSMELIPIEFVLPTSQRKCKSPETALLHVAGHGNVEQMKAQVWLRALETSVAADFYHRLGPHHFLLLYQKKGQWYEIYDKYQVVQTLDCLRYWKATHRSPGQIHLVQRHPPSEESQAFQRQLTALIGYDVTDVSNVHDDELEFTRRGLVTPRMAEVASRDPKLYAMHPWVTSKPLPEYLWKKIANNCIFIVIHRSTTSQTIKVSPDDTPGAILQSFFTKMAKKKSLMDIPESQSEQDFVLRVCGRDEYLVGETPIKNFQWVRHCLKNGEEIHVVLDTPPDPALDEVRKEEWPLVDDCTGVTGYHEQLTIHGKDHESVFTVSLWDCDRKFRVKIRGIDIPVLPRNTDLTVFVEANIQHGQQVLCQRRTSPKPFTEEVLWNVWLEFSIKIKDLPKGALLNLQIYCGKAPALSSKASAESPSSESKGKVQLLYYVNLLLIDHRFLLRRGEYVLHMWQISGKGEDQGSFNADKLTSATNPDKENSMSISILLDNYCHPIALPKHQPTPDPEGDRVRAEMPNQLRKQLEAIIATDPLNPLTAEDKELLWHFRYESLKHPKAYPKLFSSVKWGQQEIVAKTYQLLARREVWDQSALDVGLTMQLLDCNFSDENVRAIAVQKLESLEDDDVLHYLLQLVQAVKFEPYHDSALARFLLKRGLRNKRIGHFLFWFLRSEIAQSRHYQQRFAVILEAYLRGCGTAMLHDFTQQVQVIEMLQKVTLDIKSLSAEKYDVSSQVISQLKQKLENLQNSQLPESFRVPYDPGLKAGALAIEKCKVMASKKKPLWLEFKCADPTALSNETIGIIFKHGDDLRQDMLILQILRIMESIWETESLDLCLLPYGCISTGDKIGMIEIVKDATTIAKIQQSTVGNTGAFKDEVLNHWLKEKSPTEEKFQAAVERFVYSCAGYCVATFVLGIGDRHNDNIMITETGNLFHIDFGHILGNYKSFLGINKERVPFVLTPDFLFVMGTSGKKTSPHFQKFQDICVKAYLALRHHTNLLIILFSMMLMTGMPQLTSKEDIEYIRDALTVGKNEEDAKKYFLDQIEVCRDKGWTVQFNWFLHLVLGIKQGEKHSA
# How it was run: (§1)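 PI3K was preincubated with compound (final DMSO 1%), and the reaction was started with PIP2/ATP substrate and run 30–60 min. It was stopped with a detector mix giving 10 nM red probe and 70 nM GST-GRP.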
# PI3K [2] = target: T2, PI3K (Homo sapiens, UniProt P42336); assay: Fluorescence polarization assay for PI3K; type: biochemical; details: PI3 Kinase α isoform, fluorescence polarization; read-out: PI3 Kinase α IC50
# T2 construct: PI3 Kinase α IC50; other: PI3 Kinase α; other: PI3 Kinase α isoform, fluorescence polarization
# T2 sequence (P42336 whole entry, canonical isoform): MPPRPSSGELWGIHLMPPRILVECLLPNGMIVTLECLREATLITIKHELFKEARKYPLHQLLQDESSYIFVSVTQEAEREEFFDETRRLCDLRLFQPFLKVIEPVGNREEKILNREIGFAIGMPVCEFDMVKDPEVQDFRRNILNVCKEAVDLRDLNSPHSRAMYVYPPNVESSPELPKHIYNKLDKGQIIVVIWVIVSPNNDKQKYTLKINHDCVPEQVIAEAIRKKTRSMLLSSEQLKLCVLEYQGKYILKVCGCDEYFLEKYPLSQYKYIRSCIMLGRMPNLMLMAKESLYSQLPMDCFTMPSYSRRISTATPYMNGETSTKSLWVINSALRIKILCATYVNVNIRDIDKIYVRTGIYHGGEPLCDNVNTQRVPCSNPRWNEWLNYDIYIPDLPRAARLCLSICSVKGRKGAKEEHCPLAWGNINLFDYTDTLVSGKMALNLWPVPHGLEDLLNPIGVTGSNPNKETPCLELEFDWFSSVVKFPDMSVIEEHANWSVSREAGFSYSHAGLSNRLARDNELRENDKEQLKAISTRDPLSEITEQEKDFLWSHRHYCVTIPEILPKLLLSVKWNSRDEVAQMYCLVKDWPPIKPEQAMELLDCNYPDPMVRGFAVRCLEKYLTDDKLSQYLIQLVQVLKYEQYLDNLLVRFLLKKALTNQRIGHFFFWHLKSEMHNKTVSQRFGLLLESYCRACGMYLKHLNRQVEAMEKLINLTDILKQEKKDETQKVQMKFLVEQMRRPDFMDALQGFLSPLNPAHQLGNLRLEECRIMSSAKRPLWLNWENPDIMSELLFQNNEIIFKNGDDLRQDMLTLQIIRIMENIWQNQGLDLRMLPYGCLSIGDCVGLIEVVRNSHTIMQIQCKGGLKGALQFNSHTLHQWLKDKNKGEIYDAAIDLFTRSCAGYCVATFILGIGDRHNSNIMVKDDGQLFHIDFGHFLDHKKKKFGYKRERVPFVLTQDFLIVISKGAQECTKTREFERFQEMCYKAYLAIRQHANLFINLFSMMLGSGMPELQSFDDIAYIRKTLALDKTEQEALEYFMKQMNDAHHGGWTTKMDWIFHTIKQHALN
# How it was run: as §1
# prostate line LNCap = assay: In vitro cell culture growth assay (MTS), LNCap; type: cell-based; details: Homo sapiens, LNCaP, 72 h, LNCap cells, three days after drug treatment
# How it was run: (§2)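 Cells were plated and, one day later, treated with inhibitors. Three days after treatment, viable cell density was measured by MTS dye conversion, read as absorbance at 490 nm. Effects are expressed as percent of control growth versus vehicle-treated cells on the same plate.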
# Human mTOR (FLAG-TOR) = target: T3, Human mTOR (FLAG-TOR) (Homo sapiens, UniProt P42345); assay: Human mTOR kinase assay with purified enzyme, DELFIA format; type: biochemical; details: purified human mTOR enzyme, DELFIA format
# T3 construct: FLAG
# How it was run: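 Purified FLAG-mTOR in HEPES pH 7.4 buffer with 10 mM MnCl2 was preincubated with inhibitor and reacted 2 h at room temperature with His6-S6K substrate, then stopped with EDTA/EGTA. Phospho-T389 S6K detected by DELFIA with Eu-labelled antibody (40 ng/mL) after plate capture; inhibition computed from signal.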
# breast line MDA468 = assay: In vitro cell culture growth assay (MTS), MDA468; type: cell-based; details: Homo sapiens, 72 h, MDA468 cells, three days after drug treatment
# How it was run: as §2
Compound,IC50 (PI3K [1]),IC50 (PI3K [2]),IC50 (prostate line LNCap),IC50 (Human mTOR (FLAG-TOR)),IC50 (breast line MDA468)
"COC(=O)N1CCC(n2ncc3c(N4C5CCC4COC5)nc(-c4ccc(NC(=O)Nc5ccc(OCCN(C)C)cc5)cc4)nc32)CC1 [Example 368, methyl 4-[6-{4-[({4-[2-(dimethylamino)ethoxy]phenyl}carbamoyl)amino]phenyl}-4-(3-oxa-8-azabicyclo[3.2.1]oct-8-yl)-1H-pyrazolo[3,4-d]pyrimidin-1-yl]piperidine-1-carboxylate]",2 µM,1.16 µM,0.001 µM,0.000885 µM,0.004 µM
"CCn1ncc2c(N3CC4CCC(C3)O4)nc(-c3ccc(NC(=O)OC)cc3)nc21 [Example 375, methyl {4-[1-ethyl-4-(8-oxa-3-azabicyclo[3.2.1]oct-3-yl)-1H-pyrazolo[3,4-d]pyrimidin-6-yl]phenyl}carbamate]",> 10 µM,4.79 µM,0.7 µM,0.0155 µM,1.7 µM
"COC(=O)Nc1ccc(-c2nc(N3CC4CCC(C3)O4)c3cnn(C4CCC5(CC4)OCCO5)c3n2)cc1 [Example 377, methyl {4-[1-(1,4-dioxaspiro[4.5]dec-8-yl)-4-(8-oxa-3-azabicyclo[3.2.1]oct-3-yl)-1H-pyrazolo[3,4-d]pyrimidin-6-yl]phenyl}carbamate]",> 10 µM,7.36 µM,0.14 µM,0.0025 µM,1.2 µM
"Oc1cccc(-c2nc(N3C4CCC3COC4)c3cnn(-c4ccccc4)c3n2)c1 [Example 378, 3-[4-(3-oxa-8-azabicyclo[3.2.1]oct-8-yl)-1-phenyl-1H-pyrazolo[3,4-d]pyrimidin-6-yl]phenol]",1.97 µM,0.407 µM,0.82 µM,0.0115 µM,5.8 µM
"O=C(Nc1ccc(-c2nc(N3CC4C[C@@H](O)C(C3)O4)c3cnn(CC(F)(F)F)c3n2)cc1)OCCO (stereo partly drawn) [Example 379, 2-hydroxyethyl (4-{4-[(6R)-6-hydroxy-8-oxa-3-azabicyclo[3.2.1]oct-3-yl]-1-(2,2,2-trifluoroethyl)-1H-pyrazolo[3,4-d]pyrimidin-6-yl}phenyl)carbamate]",> 10 µM,> 10 µM,6.8 µM,0.245 µM,5 µM
"CNC(=O)Nc1ccc(-c2nc(N3CC4CCC(C3)O4)c3cnn(C4CCC(OC)CC4)c3n2)cc1 (centres unmarked) [Example 383, 1-{4-[1-(4-methoxycyclohexyl)-4-(8-oxa-3-azabicyclo[3.2.1]oct-3-yl)-1H-pyrazolo[3,4-d]pyrimidin-6-yl]phenyl}-3-methylurea]",> 10 µM,0.793 µM,0.007 µM,0.00053 µM,0.03 µM
"CNC(=O)Nc1ccc(-c2nc(N3CC4CCC(C3)O4)c3cnn(C4COCOC4)c3n2)cc1 [Example 385, 1-{4-[1-(1,3-dioxan-5-yl)-4-(8-oxa-3-azabicyclo[3.2.1]oct-3-yl)-1H-pyrazolo[3,4-d]pyrimidin-6-yl]phenyl}-3-methylurea]",> 10 µM,4.03 µM,1 µM,0.00995 µM,4.7 µM
"c1cc2cc(-c3nc(N4CC5CCC(C4)O5)c4cnn(C5CCC6(CC5)OCCO6)c4n3)ccc2[nH]1 [Example 388, 1-(1,4-dioxaspiro[4.5]dec-8-yl)-6-(1H-indol-5-yl)-4-(8-oxa-3-azabicyclo[3.2.1]oct-3-yl)-1H-pyrazolo[3,4-d]pyrimidine]",> 10 µM,10.5 µM,0.33 µM,0.0125 µM,2 µM

# Continued, in another order:
IC50 (PI3K [1]),IC50 (PI3K [2]),IC50 (prostate line LNCap),IC50 (Human mTOR (FLAG-TOR)),Compound,IC50 (breast line MDA468)
11.9 µM,3.14 µM,0.22 µM,0.0016 µM,"CN1CCN(C2CCC(n3ncc4c(N5CC6CCC(C5)O6)nc(-c5ccc(NC(=O)OCCO)cc5)nc43)CC2)CC1 (centres unmarked) [Example 369, 2-hydroxyethyl (4-{1-[4-(4-methylpiperazin-1-yl)cyclohexyl]-4-(8-oxa-3-azabicyclo[3.2.1]oct-3-yl)-1H-pyrazolo[3,4-d]pyrimidin-6-yl}phenyl)carbamate]",0.75 µM
6.51 µM,2.15 µM,0.13 µM,0.000985 µM,"CCNC(=O)Nc1ccc(-c2nc(N3CC4CCC(C3)O4)c3cnn(C4CCC(N5CCN(C)CC5)CC4)c3n2)cc1 (centres unmarked) [Example 370, 1-ethyl-3-(4-{1-[4-(4-methylpiperazin-1-yl)cyclohexyl]-4-(8-oxa-3-azabicyclo[3.2.1]oct-3-yl)-1H-pyrazolo[3,4-d]pyrimidin-6-yl}phenyl)urea]",0.4 µM
8.93 µM,2.49 µM,0.19 µM,0.0013 µM,"CN1CCN(C2CCC(n3ncc4c(N5CC6CCC(C5)O6)nc(-c5ccc(NC(=O)NCCF)cc5)nc43)CC2)CC1 (centres unmarked) [Example 371, 1-(2-fluoroethyl)-3-(4-{1-[4-(4-methylpiperazin-1-yl)cyclohexyl]-4-(8-oxa-3-azabicyclo[3.2.1]oct-3-yl)-1H-pyrazolo[3,4-d]pyrimidin-6-yl}phenyl)urea]",0.46 µM
5.34 µM,2.98 µM,0.11 µM,0.000395 µM,"CN1CCN(C2CCC(n3ncc4c(N5CC6CCC(C5)O6)nc(-c5ccc(NC(=O)NC6CC6)cc5)nc43)CC2)CC1 (centres unmarked) [Example 372, 1-cyclopropyl-3-(4-{1-[4-(4-methylpiperazin-1-yl)cyclohexyl]-4-(8-oxa-3-azabicyclo[3.2.1]oct-3-yl)-1H-pyrazolo[3,4-d]pyrimidin-6-yl}phenyl)urea]",0.42 µM
1.12 µM,0.217 µM,0.22 µM,0.000385 µM,"CN1CCN(C2CCC(n3ncc4c(N5CC6CCC(C5)O6)nc(-c5ccc(NC(=O)Nc6ccccc6)cc5)nc43)CC2)CC1 (centres unmarked) [Example 373, 1-(4-{1-[4-(4-methylpiperazin-1-yl)cyclohexyl]-4-(8-oxa-3-azabicyclo[3.2.1]oct-3-yl)-1H-pyrazolo[3,4-d]pyrimidin-6-yl}phenyl)-3-phenylurea]",0.2 µM
4.05 µM,0.27 µM,0.001 µM,0.000125 µM,"O=C(Nc1ccc(-c2nc(N3CC4CCC(C3)O4)c3cnn(C4CCC5(CC4)OCCO5)c3n2)cc1)Nc1cccnc1 [Example 376, 1-{4-[1-(1,4-dioxaspiro[4.5]dec-8-yl)-4-(8-oxa-3-azabicyclo[3.2.1]oct-3-yl)-1H-pyrazolo[3,4-d]pyrimidin-6-yl]phenyl}-3-pyridin-3-ylurea]",0.005 µM
11.6 µM,1.91 µM,1.2 µM,0.0495 µM,"Oc1cccc(-c2nc(N3C[C@@H]4C[C@H]3CO4)c3cnn(-c4ccccc4)c3n2)c1 [Example 382, 3-{4-[(1S,4S)-2-oxa-5-azabicyclo[2.2.1]hept-5-yl]-1-phenyl-1H-pyrazolo[3,4-d]pyrimidin-6-yl}phenol]",5.5 µM
2.17 µM,0.297 µM,0.002 µM,0.000175 µM,"COC1CCC(n2ncc3c(N4CC5CCC(C4)O5)nc(-c4ccc(NC(=O)Nc5cccnc5)cc4)nc32)CC1 (centres unmarked) [Example 384, 1-{4-[1-(4-methoxycyclohexyl)-4-(8-oxa-3-azabicyclo[3.2.1]oct-3-yl)-1H-pyrazolo[3,4-d]pyrimidin-6-yl]phenyl}-3-pyridin-3-ylurea]",0.022 µM
